Drawing on ChEMBL document CHEMBL5537122, “Design, synthesis, and biological evaluation of 4-(2-fluorophenoxy)-7-methoxyquinazoline derivatives as dual EGFR/c-Met inhibitors for the treatment of NSCLC” (Eur J Med Chem, 2024), this text covers IC50 for 30 compounds.

Assay [1] concerns the target Epidermal growth factor receptor (Homo sapiens, UniProt P00533). Put plainly: biochemical.
Description: Inhibition of N-terminal GST tagged human recombinant EGFR (695 to end residues) expressed in baculovirus infected Sf9 cells using Poly (4:1 Glu, Tyr) as substrate incubated for 60 mins in presence of ATP by ADP-Glo luminescent assay
Assay [2] concerns the target Epidermal growth factor receptor (Homo sapiens, UniProt P00533, L858R). Put plainly: biochemical.
In assay [3] the target is Hepatocyte growth factor receptor (Homo sapiens, UniProt P08581). Description: biochemical.
Hepatocyte growth factor receptor, sequence (P08581 whole entry): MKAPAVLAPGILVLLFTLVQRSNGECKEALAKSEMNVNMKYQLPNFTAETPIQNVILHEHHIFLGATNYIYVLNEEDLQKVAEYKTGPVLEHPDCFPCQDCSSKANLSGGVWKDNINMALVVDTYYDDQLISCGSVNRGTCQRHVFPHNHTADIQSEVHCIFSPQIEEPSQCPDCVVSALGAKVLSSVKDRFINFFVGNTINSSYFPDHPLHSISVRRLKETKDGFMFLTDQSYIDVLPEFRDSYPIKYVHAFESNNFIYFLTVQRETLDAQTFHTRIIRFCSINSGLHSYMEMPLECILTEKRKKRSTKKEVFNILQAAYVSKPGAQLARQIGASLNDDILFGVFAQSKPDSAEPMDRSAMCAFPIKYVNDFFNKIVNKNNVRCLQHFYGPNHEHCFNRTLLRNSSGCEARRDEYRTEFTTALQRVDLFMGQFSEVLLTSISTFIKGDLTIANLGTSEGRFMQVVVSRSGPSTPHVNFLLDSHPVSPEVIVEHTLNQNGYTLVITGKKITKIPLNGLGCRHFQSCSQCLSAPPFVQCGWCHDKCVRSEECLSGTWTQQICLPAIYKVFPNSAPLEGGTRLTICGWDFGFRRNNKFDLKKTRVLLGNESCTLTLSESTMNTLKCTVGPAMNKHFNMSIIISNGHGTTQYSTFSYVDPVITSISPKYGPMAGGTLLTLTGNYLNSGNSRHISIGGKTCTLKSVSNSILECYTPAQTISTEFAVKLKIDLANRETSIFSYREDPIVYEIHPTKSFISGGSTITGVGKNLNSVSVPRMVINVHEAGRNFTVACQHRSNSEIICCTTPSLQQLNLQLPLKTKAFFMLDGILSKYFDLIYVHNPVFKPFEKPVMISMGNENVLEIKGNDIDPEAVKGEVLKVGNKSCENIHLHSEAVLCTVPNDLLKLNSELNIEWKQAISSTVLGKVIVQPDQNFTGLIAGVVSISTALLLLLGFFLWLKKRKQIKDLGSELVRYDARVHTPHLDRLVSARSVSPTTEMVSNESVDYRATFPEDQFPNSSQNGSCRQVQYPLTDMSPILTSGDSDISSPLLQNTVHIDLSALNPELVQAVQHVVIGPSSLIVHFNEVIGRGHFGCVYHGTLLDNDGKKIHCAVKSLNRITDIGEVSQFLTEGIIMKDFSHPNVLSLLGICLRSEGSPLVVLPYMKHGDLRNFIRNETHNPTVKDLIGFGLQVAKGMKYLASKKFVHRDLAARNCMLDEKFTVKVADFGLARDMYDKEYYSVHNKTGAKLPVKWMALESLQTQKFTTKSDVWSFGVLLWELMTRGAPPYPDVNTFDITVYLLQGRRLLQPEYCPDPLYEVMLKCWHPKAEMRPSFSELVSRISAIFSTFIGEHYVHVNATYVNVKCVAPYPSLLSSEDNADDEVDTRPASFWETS
Description: Inhibition of N-terminal GST tagged human recombinant c-Met (956 to end residues) expressed in baculovirus infected Sf9 cells using Poly (4:1 Glu, Tyr) as substrate incubated for 60 mins in presence of ATP by ADP-Glo luminescent assay
The subject of the next assay is A549. Put plainly: Antiproliferative activity against human A549 cells overexpressing c-Met and EGFR assessed as reduction in cell viability incubated for 72 hrs by MTT assay. It is filed as functional, cell-based. The settings on record: A549, 72 h. For orientation: Tetrazolium assays rely on reduction of a dye to a coloured formazan, in cell work by metabolically active cells.

A further assay concerns NCI-H1975. Description: Antiproliferative activity against human NCI-H1975 cells overexpressing c-Met and EGFR assessed as reduction in cell viability incubated for 72 hrs by MTT assay. The settings on record: NCI-H1975, 72 h. It is filed as functional, cell-based.
Another assay has as its system PC-9. Put plainly: Antiproliferative activity against human PC-9 cells overexpressing c-Met and EGFR assessed as reduction in cell viability incubated for 72 hrs by MTT assay. It is filed as functional, cell-based. The settings on record: PC-9, 72 h.

A word on the IC50: it is the midpoint of a concentration-inhibition curve.

Epidermal growth factor receptor (Homo sapiens, UniProt P00533), sequence (P00533 whole entry): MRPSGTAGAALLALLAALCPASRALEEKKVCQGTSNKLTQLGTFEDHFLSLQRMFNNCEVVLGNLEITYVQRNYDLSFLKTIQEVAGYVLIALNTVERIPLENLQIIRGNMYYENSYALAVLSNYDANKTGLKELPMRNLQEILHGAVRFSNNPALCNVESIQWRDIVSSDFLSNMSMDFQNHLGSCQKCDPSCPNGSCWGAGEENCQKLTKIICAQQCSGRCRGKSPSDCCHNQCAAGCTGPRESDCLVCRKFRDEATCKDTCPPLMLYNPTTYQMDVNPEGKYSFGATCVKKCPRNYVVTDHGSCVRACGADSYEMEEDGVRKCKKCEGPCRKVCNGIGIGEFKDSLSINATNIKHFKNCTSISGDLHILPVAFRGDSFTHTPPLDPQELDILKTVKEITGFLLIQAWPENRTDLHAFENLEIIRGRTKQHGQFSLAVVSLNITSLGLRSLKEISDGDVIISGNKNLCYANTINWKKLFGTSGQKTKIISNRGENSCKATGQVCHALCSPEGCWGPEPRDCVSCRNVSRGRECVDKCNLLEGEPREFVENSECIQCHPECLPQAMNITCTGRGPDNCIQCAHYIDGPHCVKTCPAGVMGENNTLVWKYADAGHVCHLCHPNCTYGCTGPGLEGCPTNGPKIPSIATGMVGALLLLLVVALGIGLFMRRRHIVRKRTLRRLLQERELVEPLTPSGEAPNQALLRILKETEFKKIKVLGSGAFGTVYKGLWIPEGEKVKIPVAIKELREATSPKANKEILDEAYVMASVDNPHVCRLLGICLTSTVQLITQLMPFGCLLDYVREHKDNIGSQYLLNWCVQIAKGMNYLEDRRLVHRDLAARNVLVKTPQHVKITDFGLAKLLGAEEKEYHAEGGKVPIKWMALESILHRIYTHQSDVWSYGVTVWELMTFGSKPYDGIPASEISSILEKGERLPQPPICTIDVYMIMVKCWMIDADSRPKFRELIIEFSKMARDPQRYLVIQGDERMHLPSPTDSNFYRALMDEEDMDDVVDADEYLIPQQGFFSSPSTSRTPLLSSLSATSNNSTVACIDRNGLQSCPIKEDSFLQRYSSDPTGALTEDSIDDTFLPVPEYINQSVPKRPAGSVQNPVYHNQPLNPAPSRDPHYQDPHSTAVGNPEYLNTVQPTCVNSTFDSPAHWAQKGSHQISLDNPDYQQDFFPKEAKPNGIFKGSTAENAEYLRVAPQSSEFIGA
Epidermal growth factor receptor (Homo sapiens, UniProt P00533, L858R), sequence (P00533 25-1210 L858R limits assumed): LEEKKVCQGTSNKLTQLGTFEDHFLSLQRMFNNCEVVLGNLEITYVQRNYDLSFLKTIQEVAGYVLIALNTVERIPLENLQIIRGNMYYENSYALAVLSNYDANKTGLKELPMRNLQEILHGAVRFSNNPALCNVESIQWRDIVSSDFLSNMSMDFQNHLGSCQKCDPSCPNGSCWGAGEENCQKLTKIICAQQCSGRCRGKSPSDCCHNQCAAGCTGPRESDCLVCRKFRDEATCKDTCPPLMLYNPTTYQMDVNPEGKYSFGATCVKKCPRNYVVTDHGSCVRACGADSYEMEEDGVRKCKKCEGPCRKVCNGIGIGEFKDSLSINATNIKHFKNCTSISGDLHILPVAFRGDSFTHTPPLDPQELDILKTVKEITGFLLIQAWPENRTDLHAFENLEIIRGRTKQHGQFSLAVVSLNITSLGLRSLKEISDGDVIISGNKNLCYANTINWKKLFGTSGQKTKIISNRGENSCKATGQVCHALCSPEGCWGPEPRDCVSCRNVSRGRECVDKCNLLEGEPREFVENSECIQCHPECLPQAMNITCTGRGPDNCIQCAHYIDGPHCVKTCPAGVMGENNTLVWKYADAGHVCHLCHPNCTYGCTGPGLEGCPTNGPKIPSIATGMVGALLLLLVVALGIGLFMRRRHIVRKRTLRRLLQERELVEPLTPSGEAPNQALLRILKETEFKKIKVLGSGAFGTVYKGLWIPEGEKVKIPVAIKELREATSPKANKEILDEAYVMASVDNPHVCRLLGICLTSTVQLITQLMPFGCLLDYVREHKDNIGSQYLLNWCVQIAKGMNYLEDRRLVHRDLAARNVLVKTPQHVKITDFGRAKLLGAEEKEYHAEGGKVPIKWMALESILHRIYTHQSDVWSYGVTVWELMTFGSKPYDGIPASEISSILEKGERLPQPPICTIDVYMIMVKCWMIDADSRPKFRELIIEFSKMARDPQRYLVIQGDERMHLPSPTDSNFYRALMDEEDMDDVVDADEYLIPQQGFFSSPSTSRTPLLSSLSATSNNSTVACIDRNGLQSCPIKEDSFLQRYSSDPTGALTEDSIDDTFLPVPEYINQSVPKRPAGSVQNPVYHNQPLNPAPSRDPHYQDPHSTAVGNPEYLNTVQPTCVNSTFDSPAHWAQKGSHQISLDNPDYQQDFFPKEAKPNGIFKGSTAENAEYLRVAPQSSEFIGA

For `C/C=C/C(=O)Nc1cc2c(Oc3ccc(NC(=O)n4c(=O)c(-c5ccccc5)c(C)n4C)cc3F)cccc2cc1OC`, the IC50 in assay [1] was 4.83 µM; in assay [2] it was above 10 µM; in assay [3], 0.015 µM; in the assay with A549, 2.7 µM; in the assay with NCI-H1975, 9.42 µM; in the assay on PC-9 it was 8.88 µM.

On to `C=CC(=O)Nc1cc2c(Oc3ccc(NC(=O)NCCc4csc(Br)c4)cc3F)ncnc2cc1OC`, for which the concentration for half-maximal inhibition (IC50) stood at 2.07 µM in assay [1]; 1.51 µM in assay [2]; 0.253 µM in assay [3]; 4.08 µM in the assay with A549; 6.07 µM in the assay on NCI-H1975; 3.64 µM in the assay on PC-9.

In the case of `C=CC(=O)Nc1cc2c(Oc3ccc(NC(=O)NCCC4CCCCC4)cc3F)ncnc2cc1OC`, the IC50 in assay [1] turned out to be 1.28 µM; in assay [2] it was 1.39 µM; in assay [3], 0.088 µM; in the assay on A549, 1.57 µM; with NCI-H1975 it was 4.26 µM; in the assay on PC-9, 1.68 µM.

For `CCC(=O)Nc1cc2c(Oc3ccc(NC(=O)c4sc(-c5ccccc5)nc4C)cc3F)cccc2cc1OC`, the IC50 in assay [1] was 3.9 µM; in assay [2], above 10 µM; in assay [3], 0.0706 µM; with A549 it was 2.35 µM; in the assay on NCI-H1975, 3.56 µM; in the assay with PC-9 it was 2.94 µM.

For `CCCC(=O)Nc1cc2c(Oc3ccc(NC(=O)CCCc4ccc(C)cc4)cc3F)ncnc2cc1OC`, the IC50 in assay [1] was above 10 µM; in assay [2] it was above 10 µM; in assay [3], 0.678 µM; with A549, 14 µM; in the assay with NCI-H1975 it was 14.2 µM; with PC-9 it was 28.9 µM.

In the case of `COc1ccc(CCCC(=O)Nc2ccc(Oc3ncnc4cc(OC)c(NC(=O)CCC(C)C)cc34)c(F)c2)cc1`, the IC50 is above 10 µM in assay [1]; above 10 µM in assay [2]; above 10 µM in assay [3]; above 50 µM in the assay with A549; 10.5 µM in the assay on NCI-H1975; above 50 µM in the assay on PC-9.

Turning to `CCCC(=O)Nc1cc2c(Oc3ccc(NC(=O)CCCc4ccccc4)cc3F)ncnc2cc1OC`, the IC50 was 2.65 µM in assay [1]; 4.65 µM in assay [2]; 0.316 µM in assay [3]; 7.66 µM with A549; 4.96 µM with NCI-H1975; 9.31 µM with PC-9.

Regarding `C/C=C/C(=O)Nc1cc2c(Oc3ccc(NC(=O)CCCc4ccc(C)cc4)cc3F)ncnc2cc1OC`, the IC50 was 7.65 µM in assay [1]; above 10 µM in assay [2]; 0.531 µM in assay [3]; 4.56 µM with A549; 9.49 µM in the assay on NCI-H1975; 8.4 µM in the assay on PC-9.

Consider `C=CC(=O)Nc1cc2c(Oc3ccc(NC(=O)c4sc(-c5ccccc5)nc4C)cc3F)cccc2cc1OC`, for which the IC50 was 0.173 µM in assay [1]; 0.518 µM in assay [2]; 0.0386 µM in assay [3]; 1.94 µM in the assay with A549; 2.4 µM in the assay on NCI-H1975; 2.33 µM in the assay with PC-9.

Turning to `CCCC(=O)Nc1cc2c(Oc3ccc(NC(=O)c4c(-c5c(Cl)cccc5Cl)noc4C)cc3F)cccc2cc1OC`, the IC50 in assay [1] is above 10 µM; in assay [2], above 10 µM; in assay [3], 5.93 µM; in the assay on A549, above 50 µM; in the assay on NCI-H1975, above 50 µM; in the assay with PC-9 it was above 50 µM.

Consider `C=CC(=O)Nc1cc2c(Oc3ccc(NC(=O)CCCc4ccc(OC)cc4)cc3F)ncnc2cc1OC`, for which the IC50 in assay [1] is 0.567 µM; in assay [2], 0.693 µM; in assay [3], 0.348 µM; in the assay with A549, 3.12 µM; in the assay on NCI-H1975, 2.1 µM; in the assay with PC-9, 19.4 µM.

As for `CCC(=O)Nc1cc2c(Oc3ccc(NC(=O)CCCc4ccsc4)cc3F)ncnc2cc1OC`, the IC50 in assay [1] was above 10 µM; in assay [2] it was above 10 µM; in assay [3] it was 0.579 µM; in the assay on A549 it was 12.4 µM; in the assay with NCI-H1975 it was above 50 µM; in the assay on PC-9 it was 4.03 µM.

`C=CC(=O)Nc1cc2c(Oc3ccc(NC(=O)CCCc4ccsc4)cc3F)ncnc2cc1OC`: the IC50 in assay [1] was above 10 µM; in assay [2], above 10 µM; in assay [3] it was 0.693 µM; with A549 it was 5.14 µM; with NCI-H1975, 4.72 µM; in the assay on PC-9 it was 0.99 µM.

For `CCCCC(=O)Nc1cc2c(Oc3ccc(NC(=O)CCCc4ccccc4)cc3F)ncnc2cc1OC`, the IC50 in assay [1] is above 10 µM; in assay [2], above 10 µM; in assay [3], 0.605 µM; with A549, 7.15 µM; with NCI-H1975, 8.39 µM; with PC-9, 8.84 µM.

As for `CCCC(=O)Nc1cc2c(Oc3ccc(NC(=O)CCCc4ccsc4)cc3F)ncnc2cc1OC`, the IC50 was above 10 µM in assay [1]; above 10 µM in assay [2]; 0.959 µM in assay [3]; above 50 µM in the assay with A549; above 50 µM in the assay with NCI-H1975; 13.8 µM in the assay with PC-9.

As for `C/C=C/C(=O)Nc1cc2c(Oc3ccc(NC(=O)CCCc4ccsc4)cc3F)ncnc2cc1OC`, the IC50 in assay [1] is above 10 µM; in assay [2], above 10 µM; in assay [3] it was 1.39 µM; with A549, 21.7 µM; with NCI-H1975 it was above 50 µM; in the assay on PC-9, 1.63 µM.

As for `CCC(=O)Nc1cc2c(Oc3ccc(NC(=O)CCCc4ccc(OC)cc4)cc3F)ncnc2cc1OC`, the IC50 in assay [1] was above 10 µM; in assay [2], above 10 µM; in assay [3], 0.273 µM; in the assay with A549 it was 2.87 µM; in the assay with NCI-H1975, 7.05 µM; in the assay on PC-9 it was 9.28 µM.

In the case of `CCC(=O)Nc1cc2c(Oc3ccc(NC(=O)NCCc4csc(Br)c4)cc3F)ncnc2cc1OC`, the IC50 in assay [1] is above 10 µM; in assay [2], above 10 µM; in assay [3], 0.247 µM; in the assay with A549, 8.42 µM; in the assay with NCI-H1975, 11.1 µM; with PC-9 it was 4.97 µM.

In the case of `C=CC(=O)Nc1cc2c(Oc3ccc(NC(=O)CCCc4ccccc4)cc3F)ncnc2cc1OC`, the IC50 in assay [1] was 0.387 µM; in assay [2], 0.497 µM; in assay [3] it was 0.658 µM; in the assay with A549, 2.25 µM; in the assay on NCI-H1975 it was 1.34 µM; in the assay on PC-9 it was 2.46 µM.

For the compound `CCC(=O)Nc1cc2c(Oc3ccc(NC(=O)NCCC4CCCCC4)cc3F)ncnc2cc1OC`, the IC50 in assay [1] is 4.69 µM; in assay [2], above 10 µM; in assay [3], 0.143 µM; in the assay with A549, 2.43 µM; with NCI-H1975 it was 2.94 µM; with PC-9, above 50 µM.

With `CCCCC(=O)Nc1cc2c(Oc3ccc(NC(=O)CCCc4ccc(C)cc4)cc3F)ncnc2cc1OC`, the half-inhibitory concentration (IC50) in assay [1] is above 10 µM; in assay [2] it was above 10 µM; in assay [3] it was 2 µM; with A549 it was 6.22 µM; with NCI-H1975, above 50 µM; in the assay with PC-9, above 50 µM.

As to `C/C=C/C(=O)Nc1cc2c(Oc3ccc(NC(=O)CCCc4ccccc4)cc3F)ncnc2cc1OC`, the IC50 came out at 2.89 µM in assay [1]; 3.54 µM in assay [2]; 0.465 µM in assay [3]; 5.41 µM in the assay on A549; 4.65 µM in the assay with NCI-H1975; 5.78 µM in the assay on PC-9.

For the compound `CCC(=O)Nc1cc2c(Oc3ccc(NC(=O)NCCc4ccc(OC)c(OC)c4)cc3F)ncnc2cc1OC`, the IC50 in assay [1] is above 10 µM; in assay [2] it was above 10 µM; in assay [3] it was 0.0905 µM; with A549 it was above 50 µM; in the assay on NCI-H1975, above 50 µM; in the assay with PC-9 it was above 50 µM.

As to `C/C=C/C(=O)Nc1cc2c(Oc3ccc(NC(=O)c4sc(-c5ccccc5)nc4C)cc3F)cccc2cc1OC`, the IC50 is 2.32 µM in assay [1]; above 10 µM in assay [2]; 0.0964 µM in assay [3]; 44.2 µM with A549; above 50 µM with NCI-H1975; above 50 µM in the assay with PC-9.

On to `COc1cc2ncnc(Oc3ccc(NC(=O)CCCc4ccc(C)cc4)cc3F)c2cc1NC(=O)CCC(C)C`, for which the IC50 in assay [1] is above 10 µM; in assay [2], above 10 µM; in assay [3], 3.07 µM; in the assay on A549 it was above 50 µM; with NCI-H1975, 27.5 µM; in the assay on PC-9 it was above 50 µM.

As for `CCCCC(=O)Nc1cc2c(Oc3ccc(NC(=O)CCCc4ccc(F)cc4)cc3F)ncnc2cc1OC`, the IC50 in assay [1] was above 10 µM; in assay [2], above 10 µM; in assay [3], 0.533 µM; with A549, above 50 µM; in the assay on NCI-H1975 it was 41.2 µM; with PC-9, above 50 µM.

Consider `CCCCC(=O)Nc1cc2c(Oc3ccc(NC(=O)CCCc4ccsc4)cc3F)ncnc2cc1OC`, for which the IC50 in assay [1] is above 10 µM; in assay [2] it was above 10 µM; in assay [3] it was 1.56 µM; with A549, above 50 µM; in the assay on NCI-H1975, 37.6 µM; in the assay with PC-9 it was above 50 µM.

On to `CCCCC(=O)Nc1cc2c(Oc3ccc(NC(=O)CCCc4ccc(OC)cc4)cc3F)ncnc2cc1OC`, for which the IC50 is above 10 µM in assay [1]; above 10 µM in assay [2]; 0.824 µM in assay [3]; 29.8 µM with A549; 43.4 µM with NCI-H1975; above 50 µM in the assay on PC-9.

On to `C/C=C/C(=O)Nc1cc2c(Oc3ccc(NC(=O)c4c(-c5c(Cl)cccc5Cl)noc4C)cc3F)cccc2cc1OC`, for which the IC50 was above 10 µM in assay [1]; above 10 µM in assay [2]; 3.38 µM in assay [3]; 19.5 µM in the assay on A549; 17.2 µM with NCI-H1975; 6.12 µM in the assay with PC-9.

For the compound `C=CC(=O)Nc1cc2c(Oc3ccc(NC(=O)c4c(-c5c(Cl)cccc5Cl)noc4C)cc3F)cccc2cc1OC`, the IC50 in assay [3] is 1.77 µM; in the assay on A549, 4.57 µM; with NCI-H1975 it was 4.9 µM; in the assay with PC-9, 6.73 µM.
